In patent EP0974351A2, “Medicament for preventing and treating gastrointestinal damage” (JOUVEINAL, priority 1998, dated 2000):
Values joined by “and” are separate entries in the source; they are usually repeats but may differ in a detail not shown here. Equal entries are not always repeated.

Columns and labels:
[1] = tested on: TNBS-Induced Chronic Colonic Allodynia; test: TNBS-induced chronic colonic allodynia in rats (colonic distension threshold); assay type: in vivo, Male Sprague-Dawley rats; conditions: rat, in vivo
Protocol: GABA analogs were evaluated in rats suffering from chronic visceral allodynia induced by trinitrobenzene sulfonic acid (TNBS).
In humans, digestive disorders are often associated with visceral pain. In these pathologies, the visceral pain threshold is decreased, indicating a visceral hypersensitivity. Consequently, the following study was designed to evaluate the effect of injection of TNBS into the colon on visceral pain threshold in an experimental model of colonic distension.
(§1) Male Sprague-Dawley rats weighing 340 to 400 g were used in the study. The animals were housed three per cage in a regulated environment (20 ± 1°C, 50 ± 5% humidity, with light 8:00 AM to 8:00 PM). Under anethesia (ketamine 80 mg/kg i.p.; acepromazin 12 mg/kg i.p.), TNBS (50 mg/kg), or saline (1.5 mL/kg) was injected into the proximal colon (1 cm from the cecum). After the surgery, animals were individually housed in the regulated environment.
(§2) A balloon catheter (5-6 cm length) was inserted through the anus into the colon and kept in position (tip of balloon 5 cm from the anus) by taping the catheter to the base of the tail. The balloon was progressively inflated by step of 5 mm Hg, from 0 to 75 mm Hg, each step of inflation lasting 30 seconds. Each cycle of colonic distension was controlled by a standard barostat. The threshold corresponds to the pressure which produced the first abdominal contraction, at which time the cycle of distension was discontinued. To determine the colonic threshold, four cycles of distension were performed on the same animal.
In a second series, a group of eight rats treated with TNBS were subjected to a colonic distension session.
In a third series, a group of eight rats treated with TNBS received a subcutaneous (sc) injection of gabapentin or CI-1008 30 minutes prior to initiation of the colonic distension cycle.
(§3) All test compounds were dissolved in saline except TNBS. TNBS was dissolved in EtOH 30% (w/v). Subcutaneous injection of vehicle was given in a volume of […].
(§4) Statistical significance between each group was determined using a one-way ANOVA followed by Student's unpaired t-test. Differences were considered statistically significant at p <0.05.
Pain threshold (pressure of distension inducing the first abdominal contraction) after distal colonic distension was determined at Day 7 in two groups of awake rats: control animals and TNBS-treated animals. […] Inflammatory parameters (colon weight, area of hyperemia and necrosis and colonic myeloperoxidase content) were measured in the proximal colon at Day 7 after TNBS treatment.
Gabapentin (100, 300, and 500 mg/kg sc) and CI-1008 (30, 60, 100, and 200 mg/kg sc) were administered 30 minutes before colonic distension and measurement of the inflammatory parameters.

[2] = tested on: Colonic Threshold in Normal Rats; test: Colonic distension pain threshold in normal rats; assay type: in vivo, Male Sprague-Dawley rats; conditions: rat, in vivo
Protocol: as §1, §2
In a first series of experiments, a group of eight rats treated with saline were subjected to a colonic distension session.
as §3, §4

CN1CC[C@]23c4c5ccc(O)c4O[C@H]2[C@@H](O)C=C[C@H]3[C@H]1C5 [Morphine]
Colonic Threshold [1]: 34.22 mm Hg and 46.09 mm Hg and 64.84 mm Hg | TNBS-induced decrease in pain threshold after colonic distension (in words) [1]: completely suppressed | colonic pain threshold in normal conditions (control animals), in words [2]: significantly increased
